From publication PMC9182007, “Statistical Methods in the Study of Protein Binding and Its Relationship to Drug Bioavailability in Breast Milk” (Molecules, 2022)
Where two headings read alike, the source gives them in different places.

Experiments:
[1] = target: human serum albumin (HSA) (Homo sapiens, UniProt P02768)
[2] = HPLC on immobilized artificial membrane column (HPLCIAM); assay type: physicochemical; settings: for log k IAM: Table S5, IAM column, pH 7.4; for k IAM: Table S5, retention factor, IAM column, phosphate buffer pH 7.4/acetonitrile 80:20; for log kIAM / kIAM: Table S9, external group
[3] = NP TLC on non-impregnated control plates; assay type: physicochemical; settings: for CNP (Rf, control NP plate): Table S3, non-impregnated NP plate, acetonitrile/acetate buffer pH 7.4/methanol 60:20:20; for CNP (Rf value from the non-impregnated NP plate, control): Table S8, external group
[4] = target: T1, bovine serum albumin (BSA) (Bos taurus, UniProt P02769); experiment: RP TLC on plates impregnated with bovine serum albumin; assay type: binding
T1 construct: purchased Sigma Aldrich

[5] = RP TLC on non-impregnated control plates; assay type: physicochemical; settings: for CRP (Rf, control RP plate): Table S4, non-impregnated RP plate, acetonitrile/acetate buffer pH 7.4/methanol 60:20:20
[6] = test system: plasma protein; settings: ref DrugBank [7], cited from earlier work
[7] = target: T1, bovine serum albumin (BSA); experiment: NP TLC on plates impregnated with bovine serum albumin; assay type: binding; settings: for NP (Rf, BSA-impregnated NP plate): Table S3, NP plate impregnated with 2 mg/mL BSA, pH 7.4 mobile phase
[8] = Table S6, external group (n = 38), given as fraction
[9] = Table S1, plasma protein binding given as fraction
[10] = Table S5, retention factor, HSA column, pH 7.4, 25 degrees Celsius

Sequence of human serum albumin (HSA) (P02768 25-609): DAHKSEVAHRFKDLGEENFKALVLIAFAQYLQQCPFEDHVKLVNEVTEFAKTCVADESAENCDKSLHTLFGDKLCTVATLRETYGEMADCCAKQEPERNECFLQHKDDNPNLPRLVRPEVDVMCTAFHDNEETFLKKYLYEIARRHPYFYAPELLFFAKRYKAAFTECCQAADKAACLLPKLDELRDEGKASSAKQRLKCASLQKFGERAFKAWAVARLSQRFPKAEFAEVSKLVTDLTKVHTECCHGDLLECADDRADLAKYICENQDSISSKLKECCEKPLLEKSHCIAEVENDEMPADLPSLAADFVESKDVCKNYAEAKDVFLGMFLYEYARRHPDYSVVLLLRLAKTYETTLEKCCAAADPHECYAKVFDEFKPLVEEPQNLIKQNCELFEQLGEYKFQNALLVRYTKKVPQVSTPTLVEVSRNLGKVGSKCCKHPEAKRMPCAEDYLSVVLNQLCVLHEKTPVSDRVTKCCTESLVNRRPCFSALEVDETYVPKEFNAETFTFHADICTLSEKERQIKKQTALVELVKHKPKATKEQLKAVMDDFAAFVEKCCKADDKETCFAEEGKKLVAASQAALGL
T1 sequence (P02769 25-607): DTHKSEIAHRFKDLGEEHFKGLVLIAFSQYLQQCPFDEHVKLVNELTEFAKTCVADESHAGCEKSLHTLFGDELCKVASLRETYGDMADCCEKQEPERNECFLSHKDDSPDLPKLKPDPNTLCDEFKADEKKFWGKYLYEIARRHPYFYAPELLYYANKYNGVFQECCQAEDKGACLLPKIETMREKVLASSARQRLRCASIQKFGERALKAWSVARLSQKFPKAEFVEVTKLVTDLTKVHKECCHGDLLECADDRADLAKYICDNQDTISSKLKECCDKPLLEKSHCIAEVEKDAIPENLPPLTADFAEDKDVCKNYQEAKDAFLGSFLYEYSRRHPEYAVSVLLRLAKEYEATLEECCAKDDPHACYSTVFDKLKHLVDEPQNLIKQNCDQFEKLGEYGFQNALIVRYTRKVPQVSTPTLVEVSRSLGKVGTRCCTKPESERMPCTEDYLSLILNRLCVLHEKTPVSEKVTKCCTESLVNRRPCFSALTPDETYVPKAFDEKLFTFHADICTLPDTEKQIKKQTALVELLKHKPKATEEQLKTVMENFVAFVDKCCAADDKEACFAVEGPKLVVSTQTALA

Compound	log k IAM [2]	k IAM [2]	CNP (Rf, control NP plate) [3]	CRP (Rf, control RP plate) [5]	also measured
O=C(O)COC(=O)Cc1ccccc1Nc1c(Cl)cccc1Cl [aceclofenac]	0.42	2.63	0.89		k HSA ([1]; pH 7.4): 55.89
CC(=O)CC(c1ccc([N+](=O)[O-])cc1)c1c(O)c2ccccc2oc1=O (stereo not shown) [acenocumarol]	-0.27	0.53			
CC(=O)Nc1nnc(S(N)(=O)=O)s1 [acetazolamid]					RP (Rf value from the RP plate impregnated with 2 mg/mL BSA solution) ([4]; Table S8, external group): 0.96; kHSA [1]: 0.74; log kHSA [1]: -0.13; CRP (Rf value from the non-impregnated RP plate, control) ([5]; Table S8, external group): 0.97; PB [6, 8]: 0.98
Nc1nc2c(ncn2COCCO)c(=O)[nH]1 [aciclovir]	-1.04	0.09		0.99	PB [6, 9]: 0.21
Cc1nnc2n1-c1ccc(Cl)cc1C(c1ccccc1)=NC2 [alprazolam]	0.50	3.14			PB [6, 9]: 0.8
CCCCc1oc2ccccc2c1C(=O)c1cc(I)c(OCCN(CC)CC)c(I)c1 [amiodarone]				0.33	
CCOC(=O)C1=C(COCCN)NC(C)=C(C(=O)OC)C1c1ccccc1Cl (stereo not shown) [amlodipine]	2.00	98.90		0.61	
CC(C)c1c(C(=O)Nc2ccccc2)c(-c2ccccc2)c(-c2ccc(F)cc2)n1CC[C@@H](O)C[C@@H](O)CC(=O)O [atorvastatin]				0.80	
Cn1c(=O)c2c(ncn2C)n(C)c1=O [caffeine]	-0.75	0.18	0.82		
C[C@H](CS)C(=O)N1CCC[C@H]1C(=O)O [captopril]	-2.19	0.01	0.77		
O=C(N[C@H](CO)[C@H](O)c1ccc([N+](=O)[O-])cc1)C(Cl)Cl [chloramphenikol]	0.03	1.08	0.99	0.89	RP (Rf, BSA-impregnated RP plate) ([4]; Table S4, RP plate impregnated with 2 mg/mL BSA, pH 7.4 mobile phase): 0.89; log k HSA ([1]; Table S5, HSA, pH 7.4): -0.21; k HSA [1, 10]: 0.61; NP (Rf, BSA-impregnated NP plate) [7]: 0.97
CCN(CC)CCCC(C)Nc1ccnc2cc(Cl)ccc12 (stereo not shown) [chloroquine]					PB [6, 8]: 0.55; log kIAM [2]: 0.49
NS(=O)(=O)c1cc(C2(O)NC(=O)c3ccccc32)ccc1Cl (stereo not shown) [chlortalidone]	0.12	1.32	0.96		k HSA [1, 10]: 0.85; PB [6, 9]: 0.75; NP (Rf, BSA-impregnated NP plate) [7]: 0.96
O=C(O)c1cn(C2CC2)c2cc(N3CCNCC3)c(F)cc2c1=O [ciprofloxacin]			0.11	0.38	
CN(C)CCCC1(c2ccc(F)cc2)OCc2cc(C#N)ccc21 (stereo not shown) [citalopram]					PB [6, 8]: 0.80; kIAM [2]: 3.14; log kIAM [2]: 0.50
CN(C)CCCN1c2ccccc2CCc2ccc(Cl)cc21 [clomipramine]					kIAM [2]: 3.05; log kIAM [2]: 0.48
COc1cc2c(c(OC)c1OC)-c1ccc(OC)c(=O)cc1[C@@H](NC(C)=O)CC2 [colchicine]					PB [6, 8]: 0.39
Clc1ccc2c(c1)CCc1cccnc1C2=C1CCNCC1 [desloratidine]	1.70	50.45			
C[C@H]1O[C@@H](O[C@H]2[C@@H](O)C[C@H](O[C@H]3[C@@H](O)C[C@H](O[C@H]4CC[C@@]5(C)[C@H](CC[C@@H]6[C@@H]5C[C@@H](O)[C@]5(C)[C@@H](C7=CC(=O)OC7)CC[C@]65O)C4)O[C@@H]3C)O[C@@H]2C)C[C@H](O)[C@@H]1O [digoxin]	0.57	3.69			
COc1cc2nc(N3CCN(C(=O)C4COc5ccccc5O4)CC3)nc(N)c2cc1OC (stereo not shown) [doxazosin]	-0.66	0.22		0.75	
CN(C)CCC[C@@]1(c2ccc(F)cc2)OCc2cc(C#N)ccc21 [escitalopram]	1.51	32.08	0.42	0.55	PB [6, 9]: 0.56
C[C@]12CC[C@@H]3c4ccc(O)cc4CC[C@H]3[C@@H]1CCC2=O [estrone]	1.47	29.40	0.99	0.79	PB [6, 9]: 0.95; NP (Rf, BSA-impregnated NP plate) [7]: 0.99
CC(C)(C(=O)O)c1ccc(C(O)CCCN2CCC(C(O)(c3ccccc3)c3ccccc3)CC2)cc1 (stereo not shown) [fexofenadine]			0.61	0.85	
CNCCC(Oc1ccc(C(F)(F)F)cc1)c1ccccc1 (stereo not shown) [fluoxetine]	1.82	66.64	0.68	0.54	PB [6, 9]: 0.945
COCCCC/C(=N\OCCN)c1ccc(C(F)(F)F)cc1 [fluvoxamine]					CNP (Rf value from the non-impregnated NP plate, control) [3]: 0.34

Compound	log k IAM [2]	k IAM [2]	CNP (Rf, control NP plate) [3]	CRP (Rf, control RP plate) [5]	also measured
NS(=O)(=O)c1cc2c(cc1Cl)NCNS2(=O)=O [hydrochlorotiazide]					kIAM [2]: 2.01; log kIAM [2]: 0.30
CC(C)Cc1ccc(C(C)C(=O)O)cc1 (stereo not shown) [ibuprofen]	-0.07	0.86			
CC(C(=O)O)c1cccc(C(=O)c2ccccc2)c1 (stereo not shown) [ketoprofen]	-0.71	0.20			
O=C(O)COCCN1CCN([C@H](c2ccccc2)c2ccc(Cl)cc2)CC1 [levocetrizine]	0.58	3.82			
C[C@H]1COc2c(N3CCN(C)CC3)c(F)cc3c(=O)c(C(=O)O)cn1c23 [levofloxacin]	-0.04	0.90	0.17	0.27	PB [6, 9]: 0.31
Cc1cnc(NC(=O)C2=C(O)c3ccccc3S(=O)(=O)N2C)s1 [meloxicam]	-0.31	0.49			
Nc1cc(N2CCCCC2)nc(N)[n+]1[O-] [minoxidil]					PB [6, 8]: 0.00; kIAM [2]: 1.96; log kIAM [2]: 0.29; CNP (Rf value from the non-impregnated NP plate, control) [3]: 0.43
CC(C)(O)c1ccccc1CC[C@@H](SCC1(CC(=O)O)CC1)c1cccc(/C=C/c2ccc3ccc(Cl)cc3n2)c1 [montelukast]	2.00	99.10	0.95	0.70	
COc1ccc2cc([C@H](C)C(=O)O)ccc2c1 [naproxen]			0.92	0.88	
CC1COc2c(N3CCN(C)CC3)c(F)cc3c(=O)c(C(=O)O)cn1c23 (stereo not shown) [ofloxacin]					PB [6, 8]: 0.32; kIAM [2]: 3.07; log kIAM [2]: 0.49; CNP (Rf value from the non-impregnated NP plate, control) [3]: 0.24
O=C1Nc2ccc(Cl)cc2C(c2ccccc2)=NC1O (stereo not shown) [oxazepam]	0.68	4.78			
CCN(CC)CC#CCOC(=O)C(O)(c1ccccc1)C1CCCCC1 (stereo not shown) [oxybutinin]	1.70	49.68	0.68	0.29	
CCCNCC(O)COc1ccccc1C(=O)CCc1ccccc1 (stereo not shown) [propafenone]			0.57	0.56	
CC(C)NCC(O)COc1cccc2ccccc12 (stereo not shown) [propranolol]	1.45	28.09	0.54		NP (Rf, BSA-impregnated NP plate) [7]: 0.50
CCCc1cc(=O)[nH]c(=S)[nH]1 [propylthiouracil]					PB [6, 8]: 0.82; kIAM [2]: 1.51; log kIAM [2]: 0.18
C=C[C@H]1C[N@@]2CC[C@H]1C[C@H]2[C@H](O)c1ccnc2ccc(OC)cc12 [quinine]					kIAM [2]: 3.06; log kIAM [2]: 0.49
CCC(C)(C)C(=O)O[C@H]1C[C@@H](C)C=C2C=C[C@H](C)[C@H](CC[C@@H]3C[C@@H](O)CC(=O)O3)[C@H]21 [simvastatin]			0.19	0.66	
CCN1CCCC1CNC(=O)c1cc(S(N)(=O)=O)ccc1OC (stereo not shown) [sulpiride]	0.22	1.66	0.27	0.85	PB [6, 9]: 0.4
CN1C(=O)C(O)N=C(c2ccccc2)c2cc(Cl)ccc21 (stereo not shown) [temazepam]	0.83	6.74			
COc1cccc(C2(O)CCCCC2CN(C)C)c1 (stereo not shown) [tramadol]					PB [6, 8]: 0.20
COc1cc(Cc2cnc(N)nc2N)cc(OC)c1OC [trimethoprim]					PB [6, 8]: 0.44; CNP (Rf value from the non-impregnated NP plate, control) [3]: 0.57; NP (Rf value from the NP plate impregnated with 2 mg/mL BSA solution) ([7]; Table S8, external group): 0.59
CCCCC(=O)N(Cc1ccc(-c2ccccc2-c2nnn[nH]2)cc1)[C@H](C(=O)O)C(C)C [valsartan]	-1.10	0.08	0.89	0.97	PB [6, 9]: 0.955
CC(=O)CC(c1ccccc1)c1c(O)c2ccccc2oc1=O (stereo not shown) [warfarin]					kIAM [2]: 2.76; log kIAM [2]: 0.44
gentamycin					kIAM [2]: 4.25; log kIAM [2]: 0.63; CNP (Rf value from the non-impregnated NP plate, control) [3]: 0.96
